Laboratory results as given in PubChem BioAssay AID248 (DTP/NCI, 2004).
Where “and” joins values, the source holds several entries; their conditions need not be identical. Equal values may be shown once. Toxic doses and inconclusive results are not listed.

Test system: L1210 leukemia ip in BDF1 mice, survival T/C
Assay: NCI In Vivo Anticancer Drug Screen. Data for tumor model L1210 Leukemia (intraperitoneal) in B6D2F1 (BDF1) mice
Settings: endpoint: mean survival time, higher = longer survival
Outline: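 Survival endpoint. Drug-treated group vs vehicle group, expressed as T divided by C. Tumor passaged by transplantation.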

[1] = dose: 100.0 mg/kg/injection, schedule: Q04DX003 (ip), vehicle: saline
[2] = dose: 100.0 mg/kg/injection, schedule: Q01DX001 (ip), vehicle: saline
[3] = dose: 200.0 mg/kg/injection, schedule: Q01DX001 (ip), vehicle: saline
[4] = dose: 400.0 mg/kg/injection, schedule: Q01DX001 (ip), vehicle: saline
[5] = dose: 200.0 mg/kg/injection, schedule: Q04DX003 (ip), vehicle: saline
[6] = dose: 400.0 mg/kg/injection, schedule: Q04DX003 (ip), vehicle: saline
[7] = dose: 100.0 mg/kg/injection, schedule: Q01DX001 (ip), vehicle: carboxymethylcellulose (CMC)
[8] = dose: 200.0 mg/kg/injection, schedule: Q01DX001 (ip), vehicle: carboxymethylcellulose (CMC)
[9] = dose: 400.0 mg/kg/injection, schedule: Q01DX001 (ip), vehicle: carboxymethylcellulose (CMC)
[10] = dose: 100.0 mg/kg/injection, schedule: Q01DX009 (ip), vehicle: Klucel (hydroxypropylcellulose) (HPC)
[11] = dose: 200.0 mg/kg/injection, schedule: Q01DX009 (ip), vehicle: Klucel (hydroxypropylcellulose) (HPC)
[12] = dose: 400.0 mg/kg/injection, schedule: Q01DX009 (ip), vehicle: Klucel (hydroxypropylcellulose) (HPC)
[13] = dose: 100.0 mg/kg/injection, schedule: Q01DX009 (ip), vehicle: saline with Tween-80
[14] = dose: 100.0 mg/kg/injection, schedule: Q04DX003 (ip), vehicle: saline with Tween-80
[15] = dose: 200.0 mg/kg/injection, schedule: Q04DX003 (ip), vehicle: saline with Tween-80
[16] = dose: 400.0 mg/kg/injection, schedule: Q04DX003 (ip), vehicle: saline with Tween-80
[17] = dose: 100.0 mg/kg/injection, schedule: Q04DX003 (ip), vehicle: Klucel (hydroxypropylcellulose) (HPC)
[18] = dose: 200.0 mg/kg/injection, schedule: Q04DX003 (ip), vehicle: Klucel (hydroxypropylcellulose) (HPC)
[19] = dose: 400.0 mg/kg/injection, schedule: Q04DX003 (ip), vehicle: Klucel (hydroxypropylcellulose) (HPC)

CC(=O)O[C@H]1CCCC[C@@H]1NC(=O)N(CCCl)N=O
T/C (dose: 4.4 mg/kg/injection, schedule: Q01DX001 (ip), vehicle: carboxymethylcellulose (CMC)): 118 % of control
T/C (dose: 6.7 mg/kg/injection, schedule: Q01DX001 (ip), vehicle: carboxymethylcellulose (CMC)): 175 % of control
T/C (dose: 10.0 mg/kg/injection, schedule: Q01DX001 (ip), vehicle: carboxymethylcellulose (CMC)): 194 % of control
T/C (dose: 15.0 mg/kg/injection, schedule: Q01DX001 (ip), vehicle: carboxymethylcellulose (CMC)): 313 % of control and 338 % of control
T/C (dose: 27.0 mg/kg/injection, schedule: Q01DX001 (ip), vehicle: carboxymethylcellulose (CMC)): 446 % of control
T/C (dose: 40.0 mg/kg/injection, schedule: Q01DX001 (ip), vehicle: carboxymethylcellulose (CMC)): 404 % of control
T/C (dose: 60.0 mg/kg/injection, schedule: Q01DX001 (ip), vehicle: carboxymethylcellulose (CMC)): 196 % of control

COc1cc2ccc3ccncc3c2cc1OC
T/C (dose: 12.5 mg/kg/injection, schedule: Q01DX009 (ip), vehicle: saline): 104 % of control
T/C (dose: 25.0 mg/kg/injection, schedule: Q01DX009 (ip), vehicle: saline): 106 % of control and 115 % of control
T/C (dose: 50.0 mg/kg/injection, schedule: Q01DX009 (ip), vehicle: saline): 97 % of control and 111 % of control
T/C [1]: 86 % of control

N#CCCN1CCC(=O)c2ccccc21
T/C [2]: 101 % of control
T/C [3]: 98 % of control
T/C [4]: 101 % of control

COc1cccc(-n2cccc2)c1
T/C (dose: 100.0 mg/kg/injection, schedule: Q01DX001 (ip), vehicle: other): 103 % of control
T/C (dose: 200.0 mg/kg/injection, schedule: Q01DX001 (ip), vehicle: other): 105 % of control
T/C (dose: 400.0 mg/kg/injection, schedule: Q01DX001 (ip), vehicle: other): 108 % of control

O=C1c2cc(O)c(O)cc2O[C@H](c2ccc(O)c(O)c2)[C@H]1O
T/C [1]: 106 % of control
T/C [5]: 100 % of control
T/C [6]: 104 % of control

OCC1OC(n2ccc3c(N4CCCCC4)ncnc32)C(O)C1O (stereo not drawn)
T/C (dose: 50.0 mg/kg/injection, schedule: Q01DX001 (ip), vehicle: carboxymethylcellulose (CMC)): 93 % of control
T/C [7]: 95 % of control
T/C [8]: 98 % of control
T/C [9]: 93 % of control

CC12CCC3C(CC4OC45CC(O)CCC35C)C1CCC21CO1 (stereo not drawn)
T/C (dose: 50.0 mg/kg/injection, schedule: Q01DX001 (sc), vehicle: steriod suspending solution): 98 % of control
T/C (dose: 100.0 mg/kg/injection, schedule: Q01DX001 (sc), vehicle: steriod suspending solution): 104 % of control
T/C (dose: 200.0 mg/kg/injection, schedule: Q01DX001 (sc), vehicle: steriod suspending solution): 95 % of control
T/C (dose: 400.0 mg/kg/injection, schedule: Q01DX001 (sc), vehicle: steriod suspending solution): 101 % of control

CCCCCCCCCCCCCCCCCC(=O)N/N=C/c1cc(OC)ccc1OC
T/C [10]: 89 % of control
T/C [11]: 86 % of control
T/C [12]: 96 % of control

CN1CCC(O)(C#N)CC1
T/C (dose: 7.5 mg/kg/injection, schedule: Q01DX001 (ip), vehicle: saline): 101 % of control
T/C (dose: 15.0 mg/kg/injection, schedule: Q01DX001 (ip), vehicle: saline): 106 % of control

CCCCCCCCCCCCCCCCCCN1CCSCC1
T/C [13]: 96 % of control and 108 % of control
T/C (dose: 100.0 mg/kg/injection, schedule: Q04DX002 (ip), vehicle: saline with Tween-80): 93 % of control and 103 % of control
T/C [14]: 104 % of control
T/C (dose: 200.0 mg/kg/injection, schedule: Q01DX009 (ip), vehicle: saline with Tween-80): 100 % of control and 103 % of control
T/C (dose: 200.0 mg/kg/injection, schedule: Q04DX002 (ip), vehicle: saline with Tween-80): 94 % of control and 91 % of control
T/C [15]: 104 % of control
T/C (dose: 400.0 mg/kg/injection, schedule: Q01DX009 (ip), vehicle: saline with Tween-80): 103 % of control and 110 % of control
T/C (dose: 400.0 mg/kg/injection, schedule: Q04DX002 (ip), vehicle: saline with Tween-80): 98 % of control
T/C [16]: 106 % of control

Cc1cc(C)c(NC(=O)c2c(Cl)c(Cl)c(Cl)c(Cl)c2C(=O)O)c(C)c1
T/C (dose: 25.0 mg/kg/injection, schedule: Q01DX009 (ip), vehicle: Klucel (hydroxypropylcellulose) (HPC)): 102 % of control
T/C (dose: 50.0 mg/kg/injection, schedule: Q01DX009 (ip), vehicle: Klucel (hydroxypropylcellulose) (HPC)): 105 % of control
T/C [10]: 94 % of control and 116 % of control

COC1OC2COC(c3ccccc3)OC2C(NC(C)=O)C1OS(C)(=O)=O (stereo not drawn)
T/C (dose: 100.0 mg/kg/injection, schedule: Q04DX002 (ip), vehicle: Klucel (hydroxypropylcellulose) (HPC)): 101 % of control
T/C (dose: 200.0 mg/kg/injection, schedule: Q04DX002 (ip), vehicle: Klucel (hydroxypropylcellulose) (HPC)): 101 % of control
T/C (dose: 400.0 mg/kg/injection, schedule: Q04DX002 (ip), vehicle: Klucel (hydroxypropylcellulose) (HPC)): 105 % of control

CN(C)C(=O)C1C2CCC(C2)C1C(=O)N(C)C (stereo not drawn)
T/C [1]: 103 % of control
T/C [5]: 96 % of control
T/C [6]: 100 % of control

CCOc1ccc(NC(=O)OCCCl)cc1
T/C (dose: 75.0 mg/kg/injection, schedule: Q04DX002 (ip), vehicle: Klucel (hydroxypropylcellulose) (HPC)): 105 % of control
T/C (dose: 150.0 mg/kg/injection, schedule: Q04DX002 (ip), vehicle: Klucel (hydroxypropylcellulose) (HPC)): 105 % of control
T/C (dose: 300.0 mg/kg/injection, schedule: Q04DX002 (ip), vehicle: Klucel (hydroxypropylcellulose) (HPC)): 101 % of control

CCCC(C(=O)O)C1=CCCC1 (stereo not drawn)
T/C [13]: 88 % of control
T/C [1]: 98 % of control
T/C [5]: 103 % of control
T/C [6]: 101 % of control

CC(=O)OCC1OC(SSC2OC(COC(C)=O)C(OC(C)=O)C(OC(C)=O)C2OC(C)=O)C(OC(C)=O)C(OC(C)=O)C1OC(C)=O (stereo not drawn)
T/C [2]: 93 % of control
T/C [3]: 95 % of control
T/C [4]: 89 % of control

CCCCCCCCCCNc1ccc(NCCCCCCCCCC)cc1
T/C [10]: 108 % of control
T/C [17]: 95 % of control
T/C [11]: 109 % of control
T/C [18]: 102 % of control
T/C [12]: 90 % of control
T/C [19]: 105 % of control

O=S(=O)(c1ccccc1)C(I)I
T/C (dose: 10.0 mg/kg/injection, schedule: Q04DX002 (ip), vehicle: Klucel (hydroxypropylcellulose) (HPC)): 96 % of control
T/C (dose: 20.0 mg/kg/injection, schedule: Q04DX002 (ip), vehicle: Klucel (hydroxypropylcellulose) (HPC)): 94 % of control
T/C (dose: 40.0 mg/kg/injection, schedule: Q04DX002 (ip), vehicle: Klucel (hydroxypropylcellulose) (HPC)): 100 % of control

CCCCCCC(OC(C)=O)OC(C)=O
T/C (dose: 222.0 mg/kg/injection, schedule: Q01DX Z (ip), vehicle: saline): 101 % of control
T/C (dose: 333.0 mg/kg/injection, schedule: Q01DX Z (ip), vehicle: saline): 103 % of control
T/C (dose: 500.0 mg/kg/injection, schedule: Q01DX Z (ip), vehicle: saline): 104 % of control

COC1OC(COS(=O)(=O)c2ccc(C)cc2)C(N(C)C(C)=O)C1OS(=O)(=O)c1ccc(C)cc1 (stereo not drawn)
T/C [7]: 96 % of control
T/C [8]: 91 % of control
T/C [9]: 91 % of control

CCCCN1c2ccccc2NP1(=O)c1ccccc1 (stereo not drawn)
T/C [14]: 94 % of control
T/C [15]: 96 % of control
T/C [16]: 97 % of control

CCC[CH2][Sn]1([CH2]CCC)[O]CC[S]1
T/C (dose: 5.0 mg/kg/injection, schedule: Q01DX001 (ip), vehicle: saline): 111 % of control

c1cc2c(c(NC3=NCCN3)c1)CCCC2
T/C (dose: 12.5 mg/kg/injection, schedule: Q01DX009 (ip), vehicle: saline with Tween-80): 98 % of control
T/C (dose: 25.0 mg/kg/injection, schedule: Q01DX009 (ip), vehicle: saline with Tween-80): 93 % of control
T/C (dose: 50.0 mg/kg/injection, schedule: Q01DX009 (ip), vehicle: saline with Tween-80): 95 % of control

Cc1ccc(C)c(NC(=O)Nc2ccccc2C)c1
T/C [10]: 88 % of control
T/C [17]: 86 % of control
T/C [11]: 101 % of control and 90 % of control
T/C [18]: 89 % of control
T/C [19]: 89 % of control
